# Source: ChEMBL document CHEMBL1140868, “Current perspective of TACE inhibitors: a review” (Bioorg Med Chem, 2009)
# Assays:
# [1] = target: T1, Disintegrin and metalloproteinase domain-containing protein 17 (Homo sapiens, UniProt P78536); test: Inhibition of TACE
# [2] = Inhibition of TNFalpha production in whole blood; type: functional, tissue-based
# [3] = Fraction unbound in human serum; type: ADME, cell-free
# [4] = Selectivity for TACE over MMP1
# [5] = Selectivity for TACE over MMP2
# [6] = Selectivity for TACE over MMP9
# Collagenase 3 = Collagenase 3 (Homo sapiens, UniProt P45452); test: Inhibition of MMP13
# [7] = target: T1, Disintegrin and metalloproteinase domain-containing protein 17; test: Inhibition of TACE in human PBMC
# THP-1 = test: Inhibition of LPS-induced TNFalpha production in human THP1 cells; type: functional, cell-based
# Interstitial collagenase = target: T2, Interstitial collagenase (Homo sapiens, UniProt P03956); test: Inhibition of MMP1
# T2 sequence (P03956 whole entry): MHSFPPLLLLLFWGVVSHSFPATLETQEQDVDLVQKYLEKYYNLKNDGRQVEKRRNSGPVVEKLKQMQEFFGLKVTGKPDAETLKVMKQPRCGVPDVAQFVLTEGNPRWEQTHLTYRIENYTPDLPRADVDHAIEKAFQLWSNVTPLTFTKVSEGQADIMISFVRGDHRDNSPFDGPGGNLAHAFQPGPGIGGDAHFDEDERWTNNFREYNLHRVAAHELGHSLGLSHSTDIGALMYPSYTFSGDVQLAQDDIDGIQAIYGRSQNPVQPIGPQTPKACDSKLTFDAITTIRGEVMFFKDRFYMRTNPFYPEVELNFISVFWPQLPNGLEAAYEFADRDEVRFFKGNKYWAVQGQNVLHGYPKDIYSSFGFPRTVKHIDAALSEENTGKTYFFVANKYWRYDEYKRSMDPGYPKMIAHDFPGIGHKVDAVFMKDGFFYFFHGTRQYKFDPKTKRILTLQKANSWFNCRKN
# Rattus norvegicus = test: Inhibition of LPS-induced TNFalpha production in po dosed rat plasma; type: functional
# [8] = Oral bioavailability in rat; type: ADME, organism-based; conditions: in vivo
# [9] = Half life in human; type: ADME, organism-based; conditions: in vivo
# Mus musculus [10] = test: Inhibition of LPS-induced TNFalpha production in po dosed mouse; type: functional
# [11] = Oral bioavailability in dog; type: ADME, organism-based, Canis lupus familiaris; conditions: in vivo
# Mus musculus [12] = test: Inhibition of TNFalpha production in mouse at 50 mg/kg, po after 1 hr; type: functional
# [13] = target: Disintegrin and metalloproteinase domain-containing protein 17 (Sus scrofa, UniProt O77636); test: Inhibition of pig TACE
# Mus musculus [14] = test: Inhibition of TNFalpha production in mouse at 100 mg/kg, po after 1 hr; type: functional
# [15] = target: T1, Disintegrin and metalloproteinase domain-containing protein 17; test: Inhibition of TACE by cell free assay
# [16] = Half life in rat LPS model; type: ADME, organism-based; conditions: in vivo
# [17] = Bioavailability in rat; type: ADME, organism-based; conditions: in vivo
# Blood = test: Inhibition of TNFalpha production in human whole blood; type: functional, tissue-based
# [18] = target: 72 kDa type IV collagenase (Homo sapiens, UniProt P08253); test: Inhibition of MMP2
# [19] = target: Matrix metalloproteinase-9 (Homo sapiens, UniProt P14780); test: Inhibition of MMP9
# Sequence of Matrix metalloproteinase-9 (P14780 whole entry): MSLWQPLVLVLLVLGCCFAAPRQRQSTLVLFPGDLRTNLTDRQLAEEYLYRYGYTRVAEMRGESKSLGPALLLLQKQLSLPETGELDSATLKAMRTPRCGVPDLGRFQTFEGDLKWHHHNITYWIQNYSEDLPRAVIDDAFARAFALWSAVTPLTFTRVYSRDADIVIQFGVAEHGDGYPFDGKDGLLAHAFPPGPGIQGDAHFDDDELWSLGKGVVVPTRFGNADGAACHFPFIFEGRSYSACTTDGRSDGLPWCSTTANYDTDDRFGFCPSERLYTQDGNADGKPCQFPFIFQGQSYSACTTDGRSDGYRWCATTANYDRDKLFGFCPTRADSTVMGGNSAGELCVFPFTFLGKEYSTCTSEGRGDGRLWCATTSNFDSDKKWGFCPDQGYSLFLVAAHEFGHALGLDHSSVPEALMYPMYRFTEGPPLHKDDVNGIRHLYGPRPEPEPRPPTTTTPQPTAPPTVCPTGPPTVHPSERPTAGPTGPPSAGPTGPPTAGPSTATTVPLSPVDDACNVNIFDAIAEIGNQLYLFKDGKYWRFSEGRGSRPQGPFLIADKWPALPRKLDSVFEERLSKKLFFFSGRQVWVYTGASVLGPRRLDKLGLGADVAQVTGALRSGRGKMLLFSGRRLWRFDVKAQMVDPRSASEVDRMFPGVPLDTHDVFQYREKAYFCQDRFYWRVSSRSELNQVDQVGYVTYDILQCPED
# T1 sequence (P78536 whole entry, the tested form may be a part): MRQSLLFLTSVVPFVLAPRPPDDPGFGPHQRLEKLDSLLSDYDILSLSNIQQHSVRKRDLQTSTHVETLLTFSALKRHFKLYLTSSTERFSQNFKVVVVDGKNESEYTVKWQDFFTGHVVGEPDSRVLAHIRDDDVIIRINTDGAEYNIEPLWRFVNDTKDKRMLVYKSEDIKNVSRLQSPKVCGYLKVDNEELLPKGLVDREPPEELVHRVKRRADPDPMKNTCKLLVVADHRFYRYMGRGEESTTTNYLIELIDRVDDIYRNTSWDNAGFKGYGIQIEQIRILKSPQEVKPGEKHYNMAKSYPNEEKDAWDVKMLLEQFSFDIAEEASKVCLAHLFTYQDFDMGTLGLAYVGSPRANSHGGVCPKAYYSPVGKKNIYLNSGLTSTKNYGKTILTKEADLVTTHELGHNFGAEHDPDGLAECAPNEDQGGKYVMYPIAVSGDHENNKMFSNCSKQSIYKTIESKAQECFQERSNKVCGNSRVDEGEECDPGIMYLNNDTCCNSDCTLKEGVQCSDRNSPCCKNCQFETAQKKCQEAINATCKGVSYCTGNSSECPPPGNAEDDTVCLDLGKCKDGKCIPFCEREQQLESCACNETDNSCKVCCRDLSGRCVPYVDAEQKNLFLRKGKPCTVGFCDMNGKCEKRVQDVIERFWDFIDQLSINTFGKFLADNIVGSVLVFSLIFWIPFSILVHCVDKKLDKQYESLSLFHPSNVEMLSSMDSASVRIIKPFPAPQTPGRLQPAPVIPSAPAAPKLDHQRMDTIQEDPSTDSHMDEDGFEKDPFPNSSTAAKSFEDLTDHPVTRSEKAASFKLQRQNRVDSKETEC
# Sequence of Disintegrin and metalloproteinase domain-containing protein 17 (Sus scrofa, UniProt O77636) (O77636 whole entry, the tested form may be a part): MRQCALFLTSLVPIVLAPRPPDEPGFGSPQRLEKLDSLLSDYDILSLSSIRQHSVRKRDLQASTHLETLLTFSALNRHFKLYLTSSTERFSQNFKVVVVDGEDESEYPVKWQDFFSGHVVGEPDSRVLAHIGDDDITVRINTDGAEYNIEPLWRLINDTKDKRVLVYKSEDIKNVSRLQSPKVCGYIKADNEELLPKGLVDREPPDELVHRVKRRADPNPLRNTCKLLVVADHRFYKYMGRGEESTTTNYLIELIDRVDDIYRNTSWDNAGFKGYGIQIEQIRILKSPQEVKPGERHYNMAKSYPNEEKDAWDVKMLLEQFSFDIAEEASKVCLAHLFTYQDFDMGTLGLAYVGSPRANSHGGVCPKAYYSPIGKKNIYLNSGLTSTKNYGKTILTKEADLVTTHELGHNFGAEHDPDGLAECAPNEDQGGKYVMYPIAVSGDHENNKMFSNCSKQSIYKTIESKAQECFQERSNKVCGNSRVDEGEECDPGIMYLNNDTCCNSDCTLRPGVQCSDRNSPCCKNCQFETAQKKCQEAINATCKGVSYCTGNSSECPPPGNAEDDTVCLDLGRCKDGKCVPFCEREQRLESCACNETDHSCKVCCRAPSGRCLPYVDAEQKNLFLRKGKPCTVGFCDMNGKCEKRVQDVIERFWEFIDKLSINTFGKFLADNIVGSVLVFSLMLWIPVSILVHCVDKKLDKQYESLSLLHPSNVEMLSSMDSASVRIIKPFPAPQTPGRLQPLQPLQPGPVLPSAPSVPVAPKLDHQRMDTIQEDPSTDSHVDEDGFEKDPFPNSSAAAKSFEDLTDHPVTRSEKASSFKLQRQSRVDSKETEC
# Sequence of 72 kDa type IV collagenase (P08253 whole entry): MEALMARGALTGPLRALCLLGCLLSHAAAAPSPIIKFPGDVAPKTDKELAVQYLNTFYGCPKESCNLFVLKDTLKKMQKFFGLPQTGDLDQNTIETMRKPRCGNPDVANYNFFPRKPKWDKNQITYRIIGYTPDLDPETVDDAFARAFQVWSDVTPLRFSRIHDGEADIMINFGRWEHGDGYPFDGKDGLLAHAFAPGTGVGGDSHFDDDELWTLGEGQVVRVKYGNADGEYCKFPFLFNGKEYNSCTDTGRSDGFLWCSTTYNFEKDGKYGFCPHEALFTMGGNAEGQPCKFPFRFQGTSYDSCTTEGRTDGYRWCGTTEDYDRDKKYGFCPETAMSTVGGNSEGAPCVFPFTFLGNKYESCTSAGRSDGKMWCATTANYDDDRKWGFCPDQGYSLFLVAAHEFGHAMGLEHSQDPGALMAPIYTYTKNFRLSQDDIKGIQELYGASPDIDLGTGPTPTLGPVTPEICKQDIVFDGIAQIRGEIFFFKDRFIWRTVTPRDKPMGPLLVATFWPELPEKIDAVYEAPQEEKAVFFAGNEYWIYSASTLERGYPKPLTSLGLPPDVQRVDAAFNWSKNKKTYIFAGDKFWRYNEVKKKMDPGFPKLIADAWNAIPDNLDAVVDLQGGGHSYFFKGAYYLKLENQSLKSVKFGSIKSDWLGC
compound,measurement,setting,value
CC#CCOc1ccc([S+]([O-])C(CCCCCC)C(=O)NO)cc1 (stereo unspecified),IC50,[1],4 nM
CCOP(=O)(N[C@@H](CC(C)C)C(=O)NO)c1ccc(OC)cc1 (stereo partly specified),IC50,[1],76 nM
CC1(C)SCCN(S(=O)(=O)c2ccc(Oc3ccncc3)cc2)[C@H]1C(=O)NO [PRINOMASTAT],IC50,[1],22 nM
CC(C)C[C@@H](C(=O)NN(CC(C)C)S(C)(=O)=O)[C@H](C/C=C/c1ccccc1)C(=O)NO,IC50,[1],3 nM
Cc1cc(COc2ccc([C@]3(C)CCN([C@H](C)C(=O)NO)C3=O)cc2)c2ccccc2n1,IC50,[2],350 nM
same,fraction unbound,[3],0.036
CC#CCOc1ccc(S(=O)(=O)N(C)c2c(C(=O)NO)cnc3c(OC)cccc23)cc1,Selectivity ratio,[4],50
Cc1cc(COc2ccc(NC(=O)[C@@H]3[C@@H](C(=O)NO)CCCN3C)cc2)c2ccccc2n1,IC50,[2],20 nM
same,IC50,[1],6.2 nM
Cc1cc(COc2ccc(N3CCC([C@H](NC(=O)OC(C)(C)C)C(=O)NO)C3=O)cc2)c2ccccc2n1 (stereo partly specified),Selectivity ratio,[4],700
same,Selectivity ratio,[5],300
same,Selectivity ratio,[6],300
C[C@H](C(=O)NO)N1CC[C@@](C)(c2ccc(-c3ccccc3)cc2)C1=O,IC50,[1],13000 nM
COc1ccc(S(=O)(=O)N(C)c2c(C)cc(Br)cc2C(=O)NO)cc1,IC50,Collagenase 3,11 nM
CNC(=O)[C@@H](NC(=O)[C@H](c1ccc(C)cc1)[C@H](CO)C(=O)NO)C(C)(C)C,IC50,[7],141 nM
Cc1cc(OCc2ccc(NC(=O)[C@H]3CCCC[C@@H]3C(=O)NO)cc2)c2ccccc2n1,IC50,[2],> 50000 nM
same,IC50,[1],8 nM
CNC(=O)[C@H](Cc1ccc(NC(=N)N)cc1)NC(=O)[C@H](CC(C)C)[C@H](CCCc1ccccc1)C(=O)NO,IC50,Collagenase 3,0.1 nM
same,IC50,THP-1,130 nM
same,IC50,Interstitial collagenase,6 nM
CNC(=O)[C@@H](NC(=O)[C@H](c1ccc(OC)cc1)[C@H](CO)C(=O)NO)C(C)(C)C,IC50,[7],56 nM
Cc1cc(COc2ccc(C(=O)NC3(C)C(=O)NC(=O)NC3=O)cc2)c2ccccc2n1,IC50,[1],0.026 nM
CCC(=O)[C@@H](NC(=O)[C@H](c1ccc(OC)cc1)[C@H](CO)C(=O)NO)C(C)(C)C,ED50,Rattus norvegicus,1 mg/kg
CC#CCOc1ccc(S(=O)(=O)CC2(C(=O)NO)CCN(S(=O)(=O)C(C)C)CC2)cc1,Selectivity ratio,[5],230
Cc1cc(COc2ccc([C@]3(N)CCN([C@H](CC(C)C)C(=O)NO)C3=O)cc2)c2ccccc2n1,IC50,[2],90 nM
same,bioavailability,[8],16%
same,half-life,[9],3 h
same,ED50,Mus musculus [10],6 mg/kg
same,IC50,[1],0.2 nM
same,bioavailability,[11],54%
Cc1cc(COc2ccc(C3(C)C(=O)NC(=O)NC3=O)cc2)c2ccccc2n1,IC50,[1],1 nM
CC#CCOc1ccc(S(=O)(=O)N(C)c2c(N3CCN(C)CC3)ccc(Br)c2C(=O)NO)cc1,IC50,[1],25 nM
same,Selectivity ratio,[4],500
same,inhibition in vivo at 50 mg/kg,Mus musculus [12],100%
C[C@H](C(=O)NO)N1CC[C@@](C)(c2ccc(OCc3ccccc3)cc2)C1=O,IC50,[1],4 nM
CC#CCOc1ccc(S(=O)(=O)N2Cc3ccc(CO)cc3N(C(C)=O)CC2C(=O)NO)cc1 (stereo unspecified),Selectivity ratio,[4],> 40
CC(C)Cc1ccc([C@]2(C)CCN([C@H](C)C(=O)NO)C2=O)cc1,IC50,[1],1000 nM
C[C@H](C(=O)NO)N1CC[C@@](C)(c2ccc(Oc3ccccc3)cc2)C1=O,IC50,[1],185 nM
COc1cc(COc2ccc3c(c2)NCCN(C(CCCCNS(C)(=O)=O)C(=O)NO)S3(=O)=O)cc(OC)c1 (stereo unspecified),Ki,[13],5 nM
CC#CCOc1ccc(S(=O)(=O)N(C)c2c(C(=O)NO)cnc3onc(C)c23)cc1,inhibition in vivo at 100 mg/kg,Mus musculus [14],95%
CC[C@H](C)[C@H](NC(=O)[C@H](CC(C)C)[C@H](C(C)C)N(O)C=O)C(=O)Nc1ccccn1,IC50,[15],40 nM
same,half-life,[16],> 12 h
CC1(C)SCCN(S(=O)(=O)c2ccc(OCC#CCO)cc2)[C@H]1C(=O)NO,IC50,[1],440 nM
O=C(NO)[C@@H]1CC[C@H](O)CN1S(=O)(=O)c1ccc(OCc2ccccc2I)cc1,IC50,[1],110000 nM
Cc1cc(COc2ccc(C(=O)N[C@@H]3COCC[C@@H]3C(=O)NO)cc2)c2ccccc2n1,IC50,[2],130 nM
same,bioavailability,[17],58%
same,IC50,[1],< 1 nM
same,Selectivity ratio,[4],> 30000
same,Selectivity ratio,[5],> 30000
C=CCONC(=O)[C@@H]1[C@@H](C)N(C(C)=O)CCN1S(=O)(=O)c1ccc(OCc2ccc(C)cc2)cc1,IC50,Collagenase 3,3 nM
same,IC50,[1],1 nM
same,IC50,Interstitial collagenase,1600 nM
Cc1cc(COc2ccc(N3CC[C@](C)(CC(=O)NO)C3=O)cc2)c2ccccc2n1,IC50,Blood,1570 nM
same,IC50,[1],1 nM
CCC[C@@H]([C@@H](CC(C)C)C(=O)C[C@@H](CCCN/C(N)=N/[N+](=O)[O-])C(=O)Nc1nccs1)N(O)C=O,IC50,[15],4.3 nM
Cc1cc(COc2ccc(N3C(C(=O)NO)CCCS3(=O)=O)cc2)c2ccccc2n1 (stereo unspecified),Selectivity ratio,[4],> 1000
same,Selectivity ratio,[5],> 1000
same,Selectivity ratio,[6],> 1000
C/C=C/C=C/C=C1/C=C(CCC(=O)NO)C(=O)OC1,IC50,[18],6 nM
same,IC50,[19],23 nM
same,IC50,[1],28 nM
Cc1cc(COc2ccc(S(=O)(=O)CC3C(C(=O)NO)CCN3C)cc2)c2ccccc2n1 (stereo unspecified),IC50,[2],180 nM
same,IC50,[1],1 nM
same,Selectivity ratio,[4],2000
same,Selectivity ratio,[5],2000
same,Selectivity ratio,[6],2000
C[C@H](C(=O)NO)N1CC[C@@](C)(c2ccc(OCc3cc(C(F)(F)F)cc(C(F)(F)F)c3)cc2)C1=O,IC50,[1],2 nM
same,Selectivity ratio,[4],> 1000
same,Selectivity ratio,[5],> 1000
same,Selectivity ratio,[6],> 1000
Cc1cc(COc2ccc(C(=O)NCCC(=O)NO)cc2)c2ccccc2n1,IC50,[13],1 nM
